Laboratory results as given in ChEMBL document CHEMBL3861980, “Discovery of Benzothiazole Scaffold-Based DNA Gyrase B Inhibitors” (J Med Chem, 2016).

Key:
DNA gyrase subunit B [1] = target: DNA gyrase subunit B (Staphylococcus aureus, UniProt P0A0K8)
Description: Inhibition of Staphylococcus aureus DNA gyrase B ATP binding site assessed as reduction in supercoiling of relaxed pNO1 DNA after 30 mins in presence of biotinylated oligonucleotide by sybrGOLD staining based fluorescence assay

DNA gyrase subunit B [2] = target: DNA gyrase subunit B (Escherichia coli, UniProt P0AES6)
Description: Inhibition of Escherichia coli DNA gyrase B ATP binding site assessed as reduction in supercoiling of relaxed pNO1 DNA after 30 mins in presence of biotinylated oligonucleotide by sybrGOLD staining based fluorescence assay

Enterococcus faecalis = assay: microbe, parasite or virus in culture; conditions: ATCC 29212, 24 h, read-out: GI
Description: Growth inhibition of Enterococcus faecalis ATCC 29212 at 50 uM after 24 hrs by broth microdilution method

Escherichia coli [3] = assay: Growth inhibition of Escherichia coli ATCC 25922 at 50 uM after 24 hrs by broth microdilution method; assay type: functional; conditions: ATCC 25922, 24 h, read-out: GI
Pseudomonas aeruginosa = assay: Growth inhibition of Pseudomonas aeruginosa ATCC 27853 at 50 uM after 24 hrs by broth microdilution method; assay type: functional; conditions: ATCC 27853, 24 h, read-out: GI
Escherichia coli [4] = assay: Antibacterial activity against Escherichia coli ECM1194 lacking tolC gene by broth microdilution method; assay type: functional
Escherichia coli [5] = assay: Antibacterial activity against wild type Escherichia coli ECM1194 by broth microdilution method; assay type: functional

IC50 (DNA gyrase subunit B [1])	IC50 (DNA gyrase subunit B [2])	SMILES	further results
> 100 µM	0.24 µM	COC(=O)CC(=O)Nc1nc2ccc(NC(=O)c3cc(Br)c(Br)[nH]3)cc2s1	
> 100 µM	0.038 µM	O=C(O)C(=O)Nc1nc2ccc(NC(=O)c3cc(Br)c(Br)[nH]3)cc2s1	
> 100 µM	0.033 µM	O=C(O)CCC(=O)Nc1ccc2nc(NC(=O)c3cc(Br)c(Br)[nH]3)sc2c1	
> 100 µM	0.87 µM	COC(=O)CCC(=O)Nc1nc2ccc(NC(=O)c3cc(Br)c(Br)[nH]3)cc2s1	
94 µM	0.43 µM	O=C(O)CCC(=O)Nc1ccc2nc(NC(=O)c3cc(Cl)c(Cl)[nH]3)sc2c1	
8.5 µM	0.12 µM	O=C(O)CC(=O)Nc1ccc2nc(NC(=O)c3cc(Cl)c(Cl)[nH]3)sc2c1	
> 100 µM	0.22 µM	COC(=O)CC(=O)Nc1ccc2nc(NC(=O)c3cc(Cl)c(Cl)[nH]3)sc2c1	
> 100 µM	1.8 µM	CCOC(=O)C(=O)Nc1nc2ccc(NC(=O)c3cc(Cl)c(Cl)[nH]3)cc2s1	inhibition of growth at 50 µM (Enterococcus faecalis): 47%
> 100 µM	7 µM	COC(=O)CCC(=O)Nc1ccc2nc(NC(=O)c3cc(Br)c(Br)[nH]3)sc2c1	
0.51 µM		O=C(O)C(=O)Nc1ccc2nc(NC(=O)c3cc(Cl)c(Cl)[nH]3)sc2c1	
> 100 µM	29 µM	CCOC(=O)C(=O)Nc1ccc2nc(NC(=O)c3cc(Br)c(Br)[nH]3)sc2c1	
> 100 µM	0.081 µM	CCOC(=O)C(=O)Nc1nc2ccc(NC(=O)c3cc(Br)c(Br)[nH]3)cc2s1	
5.6 µM	0.14 µM	O=C(O)CC(=O)Nc1ccc2nc(NC(=O)c3cc(Br)c(Br)[nH]3)sc2c1	inhibition of growth at 50 µM (Escherichia coli [3]): 12%; inhibition of growth at 50 µM (Pseudomonas aeruginosa): 11%; inhibition of growth at 50 µM (Enterococcus faecalis): 59%; MIC (Escherichia coli [4]): < 16 µg/mL; MIC (Escherichia coli [5]): > 256 µg/mL
> 100 µM	2 µM	Nc1ccc2nc(NC(=O)c3cc(Br)c(Br)[nH]3)sc2c1	
> 100 µM	35 µM	COC(=O)CCC(=O)Nc1ccc2nc(NC(=O)c3cc(Cl)c(Cl)[nH]3)sc2c1	
> 100 µM	7.9 µM	COC(=O)CC(=O)Nc1nc2ccc(NC(=O)c3cc(Cl)c(Cl)[nH]3)cc2s1	
> 100 µM	2 µM	COC(=O)CC(=O)Nc1ccc2nc(NC(=O)c3cc(Br)c(Br)[nH]3)sc2c1	
> 100 µM	> 100 µM	CCOC(=O)C(=O)Nc1ccc2nc(NC(=O)c3cc(Cl)c(Cl)[nH]3)sc2c1	
> 100 µM	0.057 µM	O=C(O)CCC(=O)Nc1nc2ccc(NC(=O)c3cc(Br)c(Br)[nH]3)cc2s1	
> 100 µM	> 100 µM	Nc1ccc2nc(NC(=O)c3cc(Cl)c(Cl)[nH]3)sc2c1	
